Source: patent US20240336573A1, “COMPOUND FOR THE TREATMENT AND PROPHYLAXIS OF INFECTIOUS DISEASES” (Eberhard Karls Universität Tübingen Medizinische Fakultät, priority 2021, published 2024)

Assays:
[1] = system: E. coli BW25113, E. coli JW2496-3, E. coli ATCC 25922; assay: Minimal inhibitory concentration assay (bactericidal/bacteriostatic assessment); format: cell-based; details: dilution series 100-1.7 μM
Excerpt: The intended effect of a SurA inhibitor should be the induction of a disturbance of the outer membrane composition resulting in an increased susceptibility to antibiotic treatment. Of note, Vancomycin is typically not used to treat infections with Gram-negative bacteria, because it is excluded by the OM and not efficient at concentrations that could be achieved in patients. However, at appropriate dosing in vitro it can be used to detect outer membrane defects. For determining a potential sensitizing effect of Vancomycin treatment, the inventors first tested whether the compounds at hand were bactericidal per se. Therefore, the inventors performed a minimal inhibitory concentration (MIC) assay. To this end, 5 ml overnight cultures of E. coli BW25113 (Keio-Collection reference strain), E. coli JW2496-3 (Keio-Collection single gene knockout for bamB, which suffers from decreased outer membrane integrity) and E. coli ATCC 25922 (a reference strain recommended for antibiotic susceptibility testing) were grown in Mueller Hinton Broth, Cation adjusted (MHB-II). The next day, the OD was adjusted to obtain 1*10^8 CFU/ml using fresh MHB-II. Next, this bacterial solution was diluted 1:100 into 20 ml fresh MHB-II. 50 μl of this bacteria solution were then transferred into each well of a 96-well plate prefilled with 50 μl MHB-II supplemented with the desired compounds. The test plates for the bactericidal assessment contained dilution series of the compounds from 100-1.7 μM. Plates were sealed with a gas permeable membrane and incubated o/n at 37° C. in a humid chamber without shaking. After o/n incubation, bacterial growth was quantified by measuring the optical density at 600 nm wavelength in a multiplate reader. Compounds showing no growth inhibition at 100 μM were considered non-bactericidal. Of note, the bactericidal effect of Vancomycin was assessed similarly for each test strain using Vancomycin concentrations ranging from […]. This was done to identify a Vancomycin concentration at which the strains just managed to survive.

[2] = system: E. coli; assay: Vancomycin MIC in presence of compound (strain not stated); format: cell-based; details: in presence of 100 μM compound
Procedure: To test for the sensitizer properties of the compounds, the inventors then performed a sensitizer MIC assay. To this end, E. coli BW25113, E. coli JW2496-3, and E. coli ATCC 25922 inocula were prepared as described above. Each well of a 96-well plate was prefilled with a fixed compound concentration of 100 μM and a dilution series of Vancomycin ranging from […]. A sensitizing effect was defined as reduction of the MIC value of Vancomycin of the respective test strain.

[3] = target: SurA (Escherichia coli, UniProt P0ABZ6); assay: Luciferase-based SurA activity assay at the ELF (primary screen P1, dose response C2); format: biochemical, E. coli
Excerpt: The biological function of SurA is to bind and to keep outer membrane proteins that have reached the periplasm in an unfolded but folding-competent state. The inventors' assay is based on this interaction and uses firefly Luciferase (fLuc) as a non-native substrate. […] This is exploited in the assay (FIG. 3). The loss of tertiary structure of fLuc leads to the exposure of binding sites for SurA. It is known that SurA binds selectively to a special group of substrates. These substrates have in common the specific patterns of hydrophobic amino acids that are highly enriched in the beta strands of integral outer membrane proteins. These motifs are present in OMPs of all Gram-negative bacteria and in fLuc as well. Upon mild heat treatment of fLuc and its subsequent partial unfolding, fLuc is accepted as a substrate by SurA. Of note, these intermediates served as reporter substrates to determine the activity of a […] folding chaperone. […] This interaction remains stable upon temperature reduction. Next, the temperature of the assay is reduced to room temperature and luciferase activity is subsequently measured by addition of Luciferin and ATP. In conditions without SurA, fLuc will refold into its active conformation resulting in a luminescence signal.
Of note, the SurA activity assay was performed similar at the ELF but with optimizations in regard of the higher throughput including the change of the plate format to 1536-wells. The SurA activity assay performed at the ELF contained the following steps (adapted from the QHL report provided by the ELF). First, SurA was thawed at RT and heat activated in a water bath. Next, the vial was taken out of the water bath and cooled down to RT for 30 min @ bench. Afterwards, the SurA concentration was adjusted in assay buffer to 2 μM. Noteworthy, the SurA solution was kept on ice. […] Finally, 2 μL substrate mix (180 μM Luciferin with 12 mM ATP) were added simultaneously to all wells using the Fluorometric Imaging Plate Reader (FLIPR) and the luminescence signal was measured immediately afterwards on the FLIPR (Gain 70,000). […]

SurA, sequence (P0ABZ6 21-428): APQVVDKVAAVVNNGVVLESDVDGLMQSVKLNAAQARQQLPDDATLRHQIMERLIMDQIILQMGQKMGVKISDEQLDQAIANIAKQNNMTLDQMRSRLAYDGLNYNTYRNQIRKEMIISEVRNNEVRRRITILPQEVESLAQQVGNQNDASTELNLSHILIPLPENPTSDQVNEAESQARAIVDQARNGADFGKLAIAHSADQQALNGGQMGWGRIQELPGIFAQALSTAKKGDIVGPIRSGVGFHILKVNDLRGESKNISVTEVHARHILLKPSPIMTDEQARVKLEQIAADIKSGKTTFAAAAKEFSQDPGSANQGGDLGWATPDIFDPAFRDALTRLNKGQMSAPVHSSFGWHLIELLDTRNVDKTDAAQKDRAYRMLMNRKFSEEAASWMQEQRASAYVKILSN

SMILES	Bacteriostatic MIC Assay Result [1]	MIC (Vanco, mg/ml) [2] [mg/mL]	DRC (C2) pIC50 ([3]; 7 concentration steps 20 μM to 27.4 nM, n=2)	Primary assay (P1) % Effect ([3]; ELF library screen, 1536-well) [%]	Primary assay (P1) Z-score ([3]; ELF library screen, 1536-well)
NC(=O)c1nc(Cc2ccc(OCC(=O)O)cc2)[nH]c1NC(=O)c1ccc(-c2ccccc2)cc1 [Compound 2a, 2-(4-((5-([1,1′-biphenyl]-4-carboxamido)-4-carbamoyl-1H-imidazol-2-yl)methyl)phenoxy)acetic acid]	non-bacteriostatic	–	–	–	–
CN(C)c1ccc(-c2nc3cc(NC(=O)Cn4cc5ccccc5n4)ccc3[nH]2)cc1 [QHL-24]	–	0.256	5.45	151	191.97
